Experimental data published in PMC10790228 (Journal of medical virology, 2022).

Assays:
[1] = Metabolic stability in human liver microsomes; settings: HLM, 0.5 mg protein/mL; for Remaining (NCF = 60min): no co-factor (no NADPH)
HIV-1 = settings: cited from earlier work
wild-type HIV-2 = assay: Anti-HIV-2 activity in MT-4 cells, MTT method; type: cell-based; settings: read-out: EC50 HIV-2
HIV-1 CA hexamer = settings: read-out: KD Hexamer; SPR, average of at least 3 replicates
[2] = human, microsomes
[3] = molecular target: binding of CPSF6 to CA hexamer; assay: SPR-based competition assay with CPSF6; parameters: species or system HIV-1; settings: read-out: IC50 inhibition of CPSF6 binding to CA hexamer
[4] = cited from earlier work
HIV-1 NL4.3 virus = assay: Single-round infection assay, early and late stage; type: cell-based; settings: compound at 1 μM, average of 3 replicates

## Cc1[nH]c2ccccc2c1CC(=O)N[C@@H](Cc1ccccc1)C(=O)N(C)c1ccccc1 [PF-74]
[1]
  T1/2: 42 s
  Remaining (T = 60min): 0.0%
  Remaining (NCF = 60min): 106.1%
[1]; scaled from CLint(mic)
  CLint(liver): 1903.1 mL/min/kg
MT-4 cells
  CC50: > 294000 nM
HIV-1; read-out: anti-HIV-1 potency EC50
  EC50: 520 to 900 nM
wild-type HIV-2
  EC50: 3790 ± 390 nM
HIV-1 CA hexamer
  Kd: 47 ± 0.6 nM
[2]
  CLint(mic): 2114.6 µL/min/mg
[3]
  IC50: 26.6 nM
[4]
  metabolic stability T1/2: 30 to 78 s
HIV-1 NL4.3 virus
  Infection (%) Early-stage: 0.07 ± 0.01%
  Infection (%) Late-stage: 58.19 ± 12.54%

## CC(C)(C#Cc1ccc(-c2ccc(Cl)c3c(NS(C)(=O)=O)nn(CC(F)(F)F)c23)c([C@H](Cc2cc(F)cc(F)c2)NC(=O)Cn2nc(C(F)(F)F)c3c2C(F)(F)[C@@H]2C[C@H]32)n1)S(C)(=O)=O [GS-6207]
HIV-1
  anti-HIV-1 activity: picomolar

## C[C@]12CC[C@H]3[C@@H](CCC4=CC(=O)CC[C@@]43C)[C@@H]1CC[C@@H]2O [Testosterone]
[1]
  Remaining (T = 60min): 4.8%
  Remaining (NCF = 60min): 95.8%
